Experimental data taken from article PMC2361347 (British Journal of Cancer, 2006).
Like-named read-outs stand apart in the source and are kept apart here.

Experiments:
[1] = tested on: Ba/F3 cells transfected to express Bcr-Abl Wild-type p210+IL-3; experiment: cells; settings: Mus musculus, BaF3, read-out: Proliferation IC50
[2] = tested on: Ba/F3 cells transfected to express Bcr-Abl Wild-type p210; experiment: cells; settings: Mus musculus, BaF3, read-out: Proliferation IC50
[3] = tested on: Ba/F3 cells transfected to express Bcr-Abl M237I (p185); experiment: cells; settings: Mus musculus, BaF3, read-out: Proliferation IC50
[4] = tested on: imatinib-resistant BCR-ABL mutants; settings: number of mutants / mutants tested; Table 1
[5] = tested on: T315I mutant; settings: Table 1
[6] = tested on: Ba/F3 cells transfected to express Bcr-Abl L248V (p185); experiment: cells; settings: Mus musculus, BaF3, read-out: Proliferation IC50
[7] = tested on: Ba/F3 cells transfected to express Bcr-Abl G250A (p185); experiment: cells; settings: Mus musculus, BaF3, read-out: Proliferation IC50
[8] = tested on: Ba/F3 cells transfected to express Bcr-Abl G250E (p185); experiment: cells; settings: Mus musculus, BaF3, read-out: Proliferation IC50
[9] = tested on: Ba/F3 cells transfected to express Bcr-Abl G250V (p185); experiment: cells; settings: Mus musculus, BaF3, read-out: Proliferation IC50
[10] = tested on: Ba/F3 cells transfected to express Bcr-Abl Y253H (p185); experiment: cells; settings: Mus musculus, BaF3, read-out: Proliferation IC50
[11] = tested on: Ba/F3 cells transfected to express Bcr-Abl E255D (p185); experiment: cells; settings: Mus musculus, BaF3, read-out: Proliferation IC50
[12] = tested on: Ba/F3 cells transfected to express Bcr-Abl E255K (p185); experiment: cells; settings: Mus musculus, BaF3, read-out: Proliferation IC50
[13] = tested on: Ba/F3 cells transfected to express Bcr-Abl E255K (p210); experiment: cells; settings: Mus musculus, BaF3, read-out: Proliferation IC50
[14] = tested on: Ba/F3 cells transfected to express Bcr-Abl E255V (p210); experiment: cells; settings: Mus musculus, BaF3, read-out: Proliferation IC50
[15] = tested on: Ba/F3 cells transfected to express Bcr-Abl E275K (p185); experiment: cells; settings: Mus musculus, BaF3, read-out: Proliferation IC50
[16] = tested on: Ba/F3 cells transfected to express Bcr-Abl E281K (p185); experiment: cells; settings: Mus musculus, BaF3, read-out: Proliferation IC50
[17] = tested on: Ba/F3 cells transfected to express Bcr-Abl K285N (p185); experiment: cells; settings: Mus musculus, BaF3, read-out: Proliferation IC50
[18] = tested on: Ba/F3 cells transfected to express Bcr-Abl E292K (p210); experiment: cells; settings: Mus musculus, BaF3, read-out: Proliferation IC50
[19] = tested on: Ba/F3 cells transfected to express Bcr-Abl F311V (p185); experiment: cells; settings: Mus musculus, BaF3, read-out: Proliferation IC50
[20] = tested on: Ba/F3 cells transfected to express Bcr-Abl T315I (p210); experiment: cells; settings: Mus musculus, BaF3, read-out: Proliferation IC50
[21] = tested on: Ba/F3 cells transfected to express Bcr-Abl F317C (p185); experiment: cells; settings: Mus musculus, BaF3, read-out: Proliferation IC50
[22] = tested on: Ba/F3 cells transfected to express Bcr-Abl F317L (p210); experiment: cells; settings: Mus musculus, BaF3, read-out: Proliferation IC50
[23] = tested on: Ba/F3 cells transfected to express Bcr-Abl F317V (p185); experiment: cells; settings: Mus musculus, BaF3, read-out: Proliferation IC50
[24] = tested on: Ba/F3 cells transfected to express Bcr-Abl E355A (p185); experiment: cells; settings: Mus musculus, BaF3, read-out: Proliferation IC50
[25] = tested on: Ba/F3 cells transfected to express Bcr-Abl E355G (p185); experiment: cells; settings: Mus musculus, BaF3, read-out: Proliferation IC50
[26] = tested on: Ba/F3 cells transfected to express Bcr-Abl F359C (p185); experiment: cells; settings: Mus musculus, BaF3, read-out: Proliferation IC50
[27] = tested on: Ba/F3 cells transfected to express Bcr-Abl F359V (p185); experiment: cells; settings: Mus musculus, BaF3, read-out: Proliferation IC50
[28] = tested on: Ba/F3 cells transfected to express Bcr-Abl A380S (p185); experiment: cells; settings: Mus musculus, BaF3, read-out: Proliferation IC50
[29] = tested on: Ba/F3 cells transfected to express Bcr-Abl L387F (p185); experiment: cells; settings: Mus musculus, BaF3, read-out: Proliferation IC50
[30] = tested on: Ba/F3 cells transfected to express Bcr-Abl M388L (p185); experiment: cells; settings: Mus musculus, BaF3, read-out: Proliferation IC50
[31] = tested on: Ba/F3 cells transfected to express Bcr-Abl F486S (p210); experiment: cells; settings: Mus musculus, BaF3, read-out: Proliferation IC50
[32] = tested on: KBM5; parameters: method as in Golemovic et al, 2005; settings: KBM5 cell line; ref Golemovic et al, 2005; cited from earlier work
[33] = tested on: KBM7; parameters: method as in Golemovic et al, 2005; settings: KBM7 cell line; ref Golemovic et al, 2005; cited from earlier work
[34] = parameters: method as in Kantarjian et al, 2006; settings: patients receiving 400 mg b.i.d.; ref Kantarjian et al, 2006; cited from earlier work
[35] = tested on: imatinib-resistant CML mouse models; parameters: method as in Weisberg et al, 2005; settings: ref Weisberg et al, 2005; cited from earlier work
[36] = tested on: imatinib-resistant CML patients and Ph+ ALL patients; settings: cited from earlier work; for CML patients who have responded: early-phase clinical findings
[37] = tested on: mice injected with BCR-ABL-transformed haematopoietic cell lines or primary marrow cells; settings: ref Weisberg et al, 2005; cited from earlier work
[38] = tested on: newly diagnosed patients in the chronic phase of CML; settings: cited from earlier work; for annual rate of progression (resulting in death): IRIS study
[39] = accelerated phase CML patients, ref Kantarjian et al, 2006
[40] = blast-phase CML patients, ref Kantarjian et al, 2006
[41] = chronic phase CML patients, ref Kantarjian et al, 2006
[42] = newly diagnosed chronic-phase patients, ref Simonsson, 2005

Q: Which IC50 [1] does the source give for Cc1cn(-c2cc(NC(=O)c3ccc(C)c(Nc4nccc(-c5cccnc5)n4)c3)cc(C(F)(F)F)c2)cn1 [AMN107] here?
A: > 10 µM

Q: And the IC50 [2]?
A: 0.025 ± 0.001 µM

Q: And the IC50 [3]?
A: 0.043 ± 0.0087 µM

Q: What about the “imatinib-resistant BCR-ABL mutants against which activity is maintained” value [4] of the same compound?
A: 32/33

Q: What about the “activity against the T315I mutant” value [5] of the same compound?
A: no significant activity

Q: What about the IC50 [6] of the same compound?
A: 0.102 ± 0.013 µM

Q: And the IC50 [7]?
A: 0.065 ± 0.0056 µM

Q: And the IC50 [8]?
A: 0.145 ± 0.032 µM

Q: And the IC50 [9]?
A: 0.019 ± 0.0014 µM

Q: And the IC50 [10]?
A: 0.7 ± 0.116 µM

Q: What about the IC50 [11] of the same compound?
A: 0.027 ± 0.0031 µM

Q: And the IC50 [12]?
A: 0.308 ± 0.042 µM

Q: What about the IC50 [13] of the same compound?
A: 0.548 ± 0.072 µM

Q: What about the IC50 [14] of the same compound?
A: 0.791 ± 0.067 µM

Q: What about the IC50 [15] of the same compound?
A: 0.044 ± 0.0171 µM

Q: What about the IC50 [16] of the same compound?
A: 0.04 ± 0.0098 µM

Q: What about the IC50 [17] of the same compound?
A: 0.057 ± 0.012 µM

Q: And the IC50 [18]?
A: 0.081 ± 0.008 µM

Q: And the IC50 [19]?
A: 0.155 ± 0.031 µM

Q: And the IC50 [20]?
A: > 10 µM

Q: And the IC50 [21]?
A: 0.02 ± 0.0031 µM

Q: And the IC50 [22]?
A: 0.091 ± 0.0065 µM

Q: And the IC50 [23]?
A: 0.028 ± 0.004 µM

Q: What about the IC50 [24] of the same compound?
A: 0.035 ± 0.0067 µM

Q: And the IC50 [25]?
A: 0.047 ± 0.008 µM

Q: What about the IC50 [26] of the same compound?
A: 0.258 ± 0.061 µM

Q: And the IC50 [27]?
A: 0.161 ± 0.061 µM

Q: And the IC50 [28]?
A: 0.164 ± 0.027 µM

Q: And the IC50 [29]?
A: 0.046 ± 0.0072 µM

Q: What about the IC50 [30] of the same compound?
A: 0.018 ± 0.0026 µM

Q: What about the IC50 [31] of the same compound?
A: 0.075 ± 0.007 µM

Q: What about the “times more potent than imatinib” value [32] of the same compound?
A: 43 times

Q: And the “times more potent than imatinib” value [33]?
A: 60 times

Q: What about the apparent half-life [34] of the same compound?
A: 15 h

Q: And the “mean peak plasma level” value [34]?
A: 3.6 µM

Q: What about the “mean trough plasma level” value [34] of the same compound?
A: 1.7 µM

Q: What about the survival [35] of the same compound?
A: prolong survival

Q: And the maximum tolerated dose ([36]; Phase I, 50–1200 mg day−1 for up to 385 days, ref Kantarjian et al, 2006)?
A: 600 mg b.i.d.

Q: What about the cytogenetic responses [36, 39] of the same compound?
A: 48%

Q: And the haematological responses [36, 39]?
A: 72%

Q: And the cytogenetic responses [36, 40]?
A: 27%

Q: What about the haematological responses [36, 40] of the same compound?
A: 39%

Q: What about the cytogenetic responses [36, 41] of the same compound?
A: 53%

Q: What about the haematological responses [36, 41] of the same compound?
A: 92%

Q: What about the “CML patients who have responded” value ([36]; early, chronic-phase patients) of the same compound?
A: over 90%

Q: And the “imatinib-resistant Ph+ ALL patients who responded” value ([36]; of 13 Ph+ ALL patients, ref Kantarjian et al, 2006)?
A: Two

Q: What about the “CML patients who have responded” value ([36]; patients with advanced disease) of the same compound?
A: Greater than 70%

Q: And the survival of mice [37]?
A: prolong the survival

Q: What does the source list for Cc1ccc(NC(=O)c2ccc(CN3CCN(C)CC3)cc2)cc1Nc1nccc(-c2cccnc2)n1 [Imatinib]?
A: annual rate of progression (resulting in death) ([38]; after 1 year of therapy): 3.4%; annual rate of progression (resulting in death) ([38]; after 2 years of therapy): 7.5%; annual rate of progression (resulting in death) ([38]; after 3 years of therapy): 4.8%; annual rate of progression (resulting in death) ([38]; after 4 years of therapy): 1.5%; complete cytogenetic responses [38, 42]: 86%; complete haematologic remissions [38, 42]: 98%
